Counter-ions that a name gives are not always drawn.
Assays:
IMR90 ER:RAS cells [1] = experiment: Senolytic activity in IMR90 ER:RAS cells undergoing oncogene-induced senescence (4OHT) vs DMSO-treated non-senescent cells; conditions: for ability of FAK inhibitors to kill differentially senescent cells (4OHT induced) vs non-senescent cells (DMSO treated): FIG. 12; for senolytic properties: selective reduction of senescent (+4OHT) vs normal (−4OHT) cell numbers: 10 μM added 6 days after 100 nM 4OHT, cell numbers 4 days after (DAPI or crystal violet), FIG. 1, FIG. 10; for death of cells undergoing oncogene induced senescence: 100 nM 4OHT, treated 6 days after induction at indicated concentrations, FIG. 18
Procedure: FIG. 1: (A) IMR90 ER:RAS cells were induced to undergo senescence by treating them with 100 nM 4OHT for 6 days. At that point, 10 μM of the indicated drugs was added. In parallel, the same treatments were carried out in IMR90 ER:RAS cells treated with DMSO (−4OHT). […] Cells were fixed at day 6, 8 and 10 after 4OHT induction and stained with crystal violet to assess cell viability. T, Tyr-AG879; P, PF-573228; C, Cyclosporine. (B) A similar experiment to (A) was conducted and cells at day 10 post-induction were fixed and stained with DAPI to assess cell numbers
In the setup used, IMR90 ER:RAS cells were treated with 100 nM 4OHT to induce OIS (oncogene induced senescence) and activate the ER:RAS fusion protein. 6 days after 4OHT induction (+4OHT), once cells were fully senescent, the agents to be tested were added at a concentration of 10 μM, and cell numbers were assessed 4 days after by DAPI stained couple to automated microscopy. Alternatively, cells were fixed and stained with crystal violet. In parallel, the same treatments were carried out in IMR90 ER:RAS cells treated with DMSO (−4OHT).
IMR90 ER:RAS cells were induced to undergo senescence by treating them with 100 nM 4OHT for 6 days. At that point, 10 μM of the indicated drugs was added. In parallel, the same treatments were carried out in IMR90 ER:RAS cells treated with DMSO (−4OHT). […] Cells were fixed at day 6, 8 and 10 after 4OHT induction and stained with crystal violet to assess cell viability. A similar experiment was conducted and cells at day 10 post-induction were fixed and stained with DAPI to assess cell numbers (see FIG. 1).

[2] = system: IMR90 cells undergoing OIS; experiment: Western blot of cleaved caspase 3 in IMR90 cells undergoing OIS; type: cell-based, human; conditions: FIG. 17
Excerpt: Western blot showing cleaved caspase 3 upon treatment of IMR90 cells undergoing OIS with cardiac glycosides.

[3] = cited from earlier work
[4] = in vivo; cited from earlier work
[5] = system: senescent cells in the lung; experiment: Elimination of senescent cells induced by Doxorubicin treatment in mice; type: in vivo; conditions: single dose 10 mg/kg Doxorubicin; 2 months later treated for 4 consecutive days; FIG. 15
Procedure: (§1) (A) Experimental set up, mice (n=5 per group) were administered with a single dose of 10 mg/kg of Doxorubicin. […] (B) Cryosections of lungs obtained from control and doxorubicin treated mice were stained with hematoxilin and eosin (to reveal tissue architecture), and SA-β-Gal (to reveal senescent cells). Senescent cells accumulate in the bronchioles of doxorubicin-treated mice. (C) Quantification of the lung area positive for SA-β-Gal staining. […] (D) Representative pictures of lung cryosections.
Further experiments investigated whether the senolytic agents were capable of eliminating senescent cells in vivo. […] These senescent cells are responsible for some of the side-effects associated with chemotherapy and can fuel the growth of cancerous cells (Demaria et al., 2016). […] Doxorubicin treatment induces senescence in the lung.

[6] = system: senescent cells in the lung; experiment: Elimination of senescent cells induced by whole body irradiation in mice; type: in vivo; conditions: 6 Gray whole body irradiation; 2 months later treated for 4 consecutive days; FIG. 16
Excerpt: as §1, with “irradiated” for “administered”, “6 Gray to induce senescence.” for “a single dose of 10 mg/kg of Doxorubicin.”, “irradiated” for “doxorubicin treated”, “irradiated” for “doxorubicin-treated”, “(D).” for “(D)”
Whole-body irradiation is known to cause senescence. In irradiated mice, senescent cells accumulate in different tissues, including the lung (Chang et al., 2016; Yosef et al., 2016).

old mice = experiment: Intermittent ouabain treatment of old mice (ageing experiment); type: in vivo
Procedure: (A) 24 month old female mice were subjected to the schedule summarized in this panel. […] (B) Results of rotarod test that assess the physical fitness and coordination of mice. Left bar=saline, right bar=Ouabain.
The concentrations of Albumin (A), Amylase (B) and PHOS (C) on plasma were measured in mice from the aging experiment described in FIG. 21A. 90 days old female mice were included as a comparison (young).

[7] = system: Nras^G12V-positive senescent hepatocytes; experiment: Model of liver cancer initiation (NrasG12V hydrodynamic tail vein injection); type: in vivo; conditions: CB17 SCID/beige mice, 1 mg/kg ip for 3 days from day 5, livers day 9
Excerpt: (A) CB17 SCID/beige mice immunosuppressed mice were subjected to hydrodynamic tail vein injection to express NrasG12V on the liver and induce oncogene-induced senescence on hepatocytes as described in Kang et al (Nature 2011, PMID: 22080947).

[8] = use in vivo; cited from earlier work
IMR90 ER:RAS cells [9] = experiment: Senolysis in presence or absence of pan-caspase inhibitor QVD (apoptosis); type: cell-based, human; conditions: 2 or 3 days treatment, with or without QVD; FIG. 13
Procedure: FIG. 13: Several of the senolytic agents kill senescent cells by inducing apoptosis. […] Consequently cells were treated with DMSO, ABT-263 or the indicated senolytics for 2 (A) or 3 days (B) in the presence (right bar) or absence (left bar) of the pan-caspase inhibitor QVD. Treatment of senescent cells with senolytics kills them, but is prevented in the case of PF-573228, rottlerin and rotenone by pre-treatment with the pan-caspase inhibitor QVD. ABT, ABT-263; PF, PF-573228; JFD, JFD 00244; DPI, diphenyleneiodonium.
Experiments were conducted to investigate the mechanism by which the senolytics caused the elimination of senescent cells using a pan-caspase inhibitor (QVD).
Several of the agents described herein kill senescent cells by inducing apoptosis. […] Consequently, cells were treated with DMSO, ABT-263 or the indicated senolytics for 2 (A) or 3 days (B) in the presence or absence of the pan-caspase inhibitor QVD. Treatment of senescent cells with senolytics kills them, but is prevented in the case of PF-573228, rottlerin and rotenone by pre-treatment with the pan-caspase inhibitor QVD (see FIG. 13).

[10] = system: IMR90 Cherry and IMR90 ER:RAS GFP cells; experiment: Mixed cultures of normal (IMR90 Cherry) and senescent (IMR90 ER:RAS GFP) cells; type: cell-based, human; conditions: IMR90 Cherry mixed with IMR90 ER:RAS GFP, 4OHT; FIG. 14
Excerpt: FIG. 14: Senolytic agents JFD 00244 and Rottlerin specifically eliminate senescent cells in mixed cultures containing normal and senescent cells. (A) Setup of the experiments, in which normal cells (IMR90 Cherry) are mixed with IMR90 ER:RAS GFP cells (which become senescent in the presence of 4OHT). (B) Representative pictures showing the mixed cultures treated with the indicated drugs. In the bottom row, upon 4OHT the IMR90 ER:RAS GFP cells are senescent. (C) Quantification of the IMR90 Cherry (left bar) and IMR90 ER:RAS GFP (right bar) in the mixed cultures.
The above experiments were all performed comparing the effects of the drugs in cultures of normal and senescent cells. To understand whether the drugs selectively kill senescent cells from a mixed culture, experiments were conducted using Cherry-labelled normal IMR90 cells and GFP labelled IMR90 ER:RAS cells that could be induced to undergo senescence upon treatment with 4OHT (FIG. 14A).
Compounds JFD 00244 and Rottlerin specifically eliminate senescent cells in mixed cultures containing normal and senescent cells (see FIG. 14). (A) Setup of the experiments, in which normal cells (IMR90 Cherry) are mixed with IMR90 ER:RAS GFP cells (which become senescence in the presence of 4OHT). […] (C) Quantification of the IMR90 Cherry and IMR90 ER:RAS GFP in the mixed cultures.

CNC(=O)c1ccc(Nc2ncc(C(F)(F)F)c(NCc3nccnc3N(C)S(C)(=O)=O)n2)cc1 [Defactinib]
ability of FAK inhibitors to kill differentially senescent cells (4OHT induced) vs non-senescent cells (DMSO treated) (IMR90 ER:RAS cells [1]): preferentially kill senescent cells in a dose-dependent manner

Cyclosporine
senolytic properties: selective reduction of senescent (+4OHT) vs normal (−4OHT) cell numbers (IMR90 ER:RAS cells [1]): showed the most promising senolytic properties

C[C@H]1O[C@@H](O[C@H]2[C@@H](O)C[C@H](O[C@H]3[C@@H](O)C[C@H](O[C@H]4CC[C@@]5(C)[C@H](CC[C@@H]6[C@@H]5C[C@@H](O)[C@]5(C)[C@@H](C7=CC(=O)OC7)CC[C@]65O)C4)O[C@@H]3C)O[C@@H]2C)C[C@H](O)[C@@H]1O [Digoxin]
cleaved caspase 3 (apoptosis in senescent cells) [2]: induces apoptosis in senescent cells
death of cells undergoing oncogene induced senescence (IMR90 ER:RAS cells [1]): dose-dependent death of cells undergoing oncogene induced senescence

CN(C)CC[C@H](CSc1ccccc1)Nc1ccc(S(=O)(=O)NC(=O)c2ccc(N3CCN(Cc4ccccc4-c4ccc(Cl)cc4)CC3)cc2)cc1[N+](=O)[O-] [ABT-737]
solubility [3]: low
oral bioavailability [4]: low

CC(C)c1c(C(=O)Nc2ccccc2)c(-c2ccccc2)c(-c2ccc(F)cc2)n1CC[C@@H](O)C[C@@H](O)CC(=O)O [Atorvastatin calcium]
senolytic effect of statins, preferential killing of cells undergoing OIS (IMR90 ER:RAS cells [1]; 4OHT vs DMSO, FIG. 11): behaves as a senolytic in concentration dependent manner

C[C@@H]1O[C@@H](O[C@H]2C[C@@H](O)[C@]3(CO)[C@H]4[C@H](O)C[C@]5(C)[C@@H](C6=CC(=O)OC6)CC[C@]5(O)[C@@H]4CC[C@]3(O)C2)[C@H](O)[C@H](O)[C@H]1O [Ouabain]
lung area positive for SA-β-Gal staining (senescent cells) [5]: partially eliminated
lung area positive for SA-β-Gal staining (senescent cells) [6]: partially eliminated
cleaved caspase 3 (apoptosis in senescent cells) [2]: induces apoptosis in senescent cells
rotarod test (physical fitness and coordination) (old mice; 24 month old female mice, 1 mg/kg ip, 3 consecutive days on treatment weeks, FIG. 21): improves the physical fitness of old mice
concentrations of Albumin, Amylase and PHOS on plasma (old mice; old mice of FIG. 21A vs young (90 days old), FIG. 22): reverts ageing-associated changes of metabolites in blood
SA-β-Gal positive cells in the liver (old mice; old mice, FIG. 24): decreased senescence-associated β-galactosidase positive cells in the liver
expression of Cdkn2a mRNA (p16Ink4a) (old mice; qRT-PCR, liver, kidney and muscle of old female mice, FIG. 23): can be reduced after ouabain treatment
SA-b-gal activity in liver ([7]; FIG. 25B): reduced
p21-positive cells ([7]; FIG. 25C): reduced
Nras-positive preneoplastic hepatocytes ([7]; FIG. 25D): reduced
death of cells undergoing oncogene induced senescence (IMR90 ER:RAS cells [1]): dose-dependent death of cells undergoing oncogene induced senescence
senolytic activity on adding KCl (increased intracellular K+) (IMR90 ER:RAS cells [1]; with KCl, FIG. 20A): prevented by increasing the intracellular K^+ concentration by adding KCl
senolytic activity on inhibition of p38 (IMR90 ER:RAS cells [1]; with p38 inhibition, FIG. 20B): partially prevents the senolytic properties of ouabain

CC1(C)CCC(c2ccc(Cl)cc2)=C(CN2CCN(c3ccc(C(=O)NS(=O)(=O)c4ccc(N[C@H](CCN5CCOCC5)CSc5ccccc5)c(S(=O)(=O)C(F)(F)F)c4)cc3)CC2)C1 [ABT-263]
lung area positive for SA-β-Gal staining (senescent cells) [5]: partially eliminated
lung area positive for SA-β-Gal staining (senescent cells) [6]: partially eliminated
side-effect [8]: significant thrombocytopenia

CS(=O)(=O)c1cccc(CNc2nc(Nc3ccc4c(c3)CCC(=O)N4)ncc2C(F)(F)F)c1 [PF-573228, 6-[4-(3-methyane-sulfonyl-benzyl-amino)-5-trifluoro-methyl-pyrimidin-2-ylamino]-3,4-dihydro-1H-quinolin-2-one]
elimination of senescent cells with pan-caspase inhibitor QVD (apoptosis induction) (IMR90 ER:RAS cells [9]): selectively induce apoptosis of senescent cells
senolytic properties: selective reduction of senescent (+4OHT) vs normal (−4OHT) cell numbers (IMR90 ER:RAS cells [1]): showed the most promising senolytic properties
ability of FAK inhibitors to kill differentially senescent cells (4OHT induced) vs non-senescent cells (DMSO treated) (IMR90 ER:RAS cells [1]): preferentially kill senescent cells in a dose-dependent manner

CC(=O)c1c(O)c(C)c(O)c(Cc2c(O)c3c(c(C(=O)/C=C/c4ccccc4)c2O)OC(C)(C)C=C3)c1O [Rottlerin]
elimination of senescent cells with pan-caspase inhibitor QVD (apoptosis induction) (IMR90 ER:RAS cells [9]): selectively induce apoptosis of senescent cells
selective elimination of senescent cells from mixed cultures [10]: selective elimination of senescent cells from the co-cultures

CC(C)(C)c1cc(/C=C(\C#N)C(N)=S)cc(C(C)(C)C)c1O [Tyrphostin AG879, (2E)-3-[3,5-Bis(1,1-dimethylethyl)-4-hydroxyphenyl]-2-cyano-2-propenethioamide]
senolytic properties: selective reduction of senescent (+4OHT) vs normal (−4OHT) cell numbers (IMR90 ER:RAS cells [1]): showed the most promising senolytic properties

O=C1c2ccccc2C(=O)c2c(NCCc3ccc(O)cc3)ccc(NCCc3ccc(O)cc3)c21 [JFD00244, 1,4-Bis[(p-hydroxy-phenethyl)amino]-anthraquinone]
selective elimination of senescent cells from mixed cultures [10]: selective elimination of senescent cells from the co-cultures

C=C(C)[C@H]1Cc2c(ccc3c2O[C@@H]2COc4cc(OC)c(OC)cc4[C@@H]2C3=O)O1 [Rotenone, (2R,6aS,12aS)-1,2,6,6a,12,12a-hexahydro-2-isopropenyl-8,9-dimethoxychromeno[3,4-b]furo(2,3-h)chromen-6-one]
elimination of senescent cells with pan-caspase inhibitor QVD (apoptosis induction) (IMR90 ER:RAS cells [9]): selectively induce apoptosis of senescent cells

C[C@]12CC[C@H](O)C[C@H]1CC[C@@H]1[C@@H]2CC[C@]2(C)[C@@H](c3ccc(=O)oc3)CC[C@]12O [Bufalin, (3β,5β)-3,14-Dihydroxybufa-20,22-dienolide]
death of cells undergoing oncogene induced senescence (IMR90 ER:RAS cells [1]): dose-dependent death of cells undergoing oncogene induced senescence

Nc1cc(N)c(N)cc1N [NSC 677249, 1,2,4,5- Benzenetetramine tetrahydrochloride]
ability of FAK inhibitors to kill differentially senescent cells (4OHT induced) vs non-senescent cells (DMSO treated) (IMR90 ER:RAS cells [1]): preferentially kill senescent cells in a dose-dependent manner
